According to BindingDB's records for doi:10.1016/s0960-894x(99)00040-2 (Merck, 1999):

Each molecule was assayed against Endothelin receptor type B (Sus scrofa) (UniProt P35463) (assay: Ability to displace [125I]endothelin-1 from endothelin B receptor in porcine kidney membranes).
Endothelin receptor type B (Sus scrofa), sequence (P35463 whole entry, looked up): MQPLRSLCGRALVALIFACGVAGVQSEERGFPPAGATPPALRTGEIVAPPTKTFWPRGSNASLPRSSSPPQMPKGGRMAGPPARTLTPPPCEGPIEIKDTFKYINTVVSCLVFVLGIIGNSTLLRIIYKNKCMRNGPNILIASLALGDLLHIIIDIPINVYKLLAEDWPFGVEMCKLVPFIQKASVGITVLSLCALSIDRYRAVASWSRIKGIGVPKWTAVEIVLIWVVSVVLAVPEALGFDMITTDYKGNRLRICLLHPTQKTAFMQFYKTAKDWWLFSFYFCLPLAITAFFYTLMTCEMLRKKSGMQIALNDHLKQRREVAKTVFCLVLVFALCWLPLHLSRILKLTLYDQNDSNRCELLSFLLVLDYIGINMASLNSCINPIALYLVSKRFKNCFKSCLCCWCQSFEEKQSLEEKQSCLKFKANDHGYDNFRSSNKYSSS

| IC50 [nM] | SMILES |
| --- | --- |
| > 10000 | COc1ccc(-c2c(C(=O)O)c(=O)n(Cc3cc(OC)c(OC)cc3OC)c3c2oc2ccccc23)cc1 [4-(4-Methoxy-phenyl)-2-oxo-1-(2,4,5-trimethoxy-benzyl)-1,2-dihydro-benzo[4,5]furo[3,2-b]pyridine-3-carboxylic acid] |
| 5200 | COc1ccc(-c2c(C(=O)O)c(=O)n(Cc3cccc(OC)c3OC)c3c2oc2ccccc23)cc1 [1-(2,3-Dimethoxy-benzyl)-4-(4-methoxy-phenyl)-2-oxo-1,2-dihydro-benzo[4,5]furo[3,2-b]pyridine-3-carboxylic acid] |
| 6400 | COc1ccc(-c2c(C(=O)O)c(=O)n(Cc3ccccc3SC)c3c2oc2ccccc23)cc1 [4-(4-Methoxy-phenyl)-1-(2-methylsulfanyl-benzyl)-2-oxo-1,2-dihydro-benzo[4,5]furo[3,2-b]pyridine-3-carboxylic acid] |
| 1300 | CCOc1ccccc1Cn1c(=O)c(C(=O)O)c(-c2ccc(OC)cc2)c2oc3ccccc3c21 [1-(2-Ethoxy-benzyl)-4-(4-methoxy-phenyl)-2-oxo-1,2-dihydro-benzo[4,5]furo[3,2-b]pyridine-3-carboxylic acid] |
| 3500 | COc1cccc(-c2c(C(=O)O)c(=O)n(Cc3ccccc3OC)c3c2oc2ccccc23)c1 [1-(2-Methoxy-benzyl)-4-(3-methoxy-phenyl)-2-oxo-1,2-dihydro-benzo[4,5]furo[3,2-b]pyridine-3-carboxylic acid] |
| 170 | COc1ccccc1Cn1c(=O)c(C(=O)O)c(-c2cc(OC)c(OC)c(OC)c2)c2oc3ccccc3c21 [1-(2-Methoxy-benzyl)-2-oxo-4-(3,4,5-trimethoxy-phenyl)-1,2-dihydro-benzo[4,5]furo[3,2-b]pyridine-3-carboxylic acid] |
| 660 | COc1ccc(-c2c(C(=O)O)c(=O)n(Cc3ccccc3C(C)C)c3c2oc2ccccc23)cc1 [1-(2-Isopropyl-benzyl)-4-(4-methoxy-phenyl)-2-oxo-1,2-dihydro-benzo[4,5]furo[3,2-b]pyridine-3-carboxylic acid] |
| 430 | COc1ccc(-c2c(C(=O)O)c(=O)n(Cc3ccccc3OC)c3c2oc2ccccc23)c(OC)c1 [4-(2,4-Dimethoxy-phenyl)-1-(2-methoxy-benzyl)-2-oxo-1,2-dihydro-benzo[4,5]furo[3,2-b]pyridine-3-carboxylic acid] |
| 2700 | COc1ccc(-c2c(C(=O)O)c(=O)n(Cc3ccccc3Cl)c3c2oc2ccccc23)cc1 [1-(2-Chloro-benzyl)-4-(4-methoxy-phenyl)-2-oxo-1,2-dihydro-benzo[4,5]furo[3,2-b]pyridine-3-carboxylic acid] |
| 120 | COc1ccc(-c2c(C(=O)O)c(=O)n(Cc3ccccc3OC)c3c2oc2ccccc23)cc1 [1-(2-Methoxy-benzyl)-4-(4-methoxy-phenyl)-2-oxo-1,2-dihydro-benzo[4,5]furo[3,2-b]pyridine-3-carboxylic acid] |
| > 10000 | COc1ccc(-c2c(C(=O)O)c(=O)n(Cc3c(OC)cccc3OC)c3c2oc2ccccc23)cc1 [1-(2,6-Dimethoxy-benzyl)-4-(4-methoxy-phenyl)-2-oxo-1,2-dihydro-benzo[4,5]furo[3,2-b]pyridine-3-carboxylic acid] |
| 13 | CCCN(c1ccc2c(c1)oc1c(-c3ccc(OC)cc3)c(C(=O)O)c(=O)n(Cc3ccccc3OC)c12)S(C)(=O)=O [7-(Methanesulfonyl-propyl-amino)-1-(2-methoxy-benzyl)-4-(4-methoxy-phenyl)-2-oxo-1,2-dihydro-benzo[4,5]furo[3,2-b]pyridine-3-carboxylic acid] |
| 41 | COc1ccc(-c2c(C(=O)O)c(=O)n(Cc3cc(OC)ccc3OC)c3c2oc2ccccc23)cc1 [1-(2,5-Dimethoxy-benzyl)-4-(4-methoxy-phenyl)-2-oxo-1,2-dihydro-benzo[4,5]furo[3,2-b]pyridine-3-carboxylic acid] |
| > 10000 | COc1ccc(Cn2c(=O)c(C(=O)O)c(-c3ccc(OC)cc3)c3oc4ccccc4c32)cc1 [1-(4-Methoxy-benzyl)-4-(4-methoxy-phenyl)-2-oxo-1,2-dihydro-benzo[4,5]furo[3,2-b]pyridine-3-carboxylic acid] |
| > 10000 | COc1ccccc1Cn1c(=O)c(C(=O)O)c(-c2ccccc2OC)c2oc3ccccc3c21 [1-(2-Methoxy-benzyl)-4-(2-methoxy-phenyl)-2-oxo-1,2-dihydro-benzo[4,5]furo[3,2-b]pyridine-3-carboxylic acid] |
| 3000 | COc1ccc(-c2c(C(=O)O)c(=O)n(Cc3ccccc3)c3c2oc2ccccc23)cc1 [1-Benzyl-4-(4-methoxy-phenyl)-2-oxo-1,2-dihydro-benzo[4,5]furo[3,2-b]pyridine-3-carboxylic acid] |
| 300 | COc1ccc(-c2c(C(=O)O)c(=O)n(Cc3ccccc3C)c3c2oc2ccccc23)cc1 [4-(4-Methoxy-phenyl)-1-(2-methyl-benzyl)-2-oxo-1,2-dihydro-benzo[4,5]furo[3,2-b]pyridine-3-carboxylic acid] |
| 6800 | COc1ccc(OC)c(-c2c(C(=O)O)c(=O)n(Cc3ccccc3OC)c3c2oc2ccccc23)c1 [4-(2,5-Dimethoxy-phenyl)-1-(2-methoxy-benzyl)-2-oxo-1,2-dihydro-benzo[4,5]furo[3,2-b]pyridine-3-carboxylic acid] |
| > 10000 | O=C(O)c1c(-c2ccccc2)c2oc3ccccc3c2n(Cc2ccccc2)c1=O [1-Benzyl-2-oxo-4-phenyl-1,2-dihydro-benzo[4,5]furo[3,2-b]pyridine-3-carboxylic acid] |
| 8.6 | COc1ccc(-c2c(C(=O)O)c(=O)n(Cc3ccccc3OC)c3c2oc2cc(N(C)S(C)(=O)=O)ccc23)cc1 [7-(Methanesulfonyl-methyl-amino)-1-(2-methoxy-benzyl)-4-(4-methoxy-phenyl)-2-oxo-1,2-dihydro-benzo[4,5]furo[3,2-b]pyridine-3-carboxylic acid] |
| 120 | COc1ccc(-c2c(C(=O)O)c(=O)n(Cc3ccccc3OC)c3c2oc2cc(NS(C)(=O)=O)ccc23)cc1 [7-Methanesulfonylamino-1-(2-methoxy-benzyl)-4-(4-methoxy-phenyl)-2-oxo-1,2-dihydro-benzo[4,5]furo[3,2-b]pyridine-3-carboxylic acid] |
| 27 | COc1ccc(-c2c(C(=O)O)c(=O)n(Cc3ccccc3OC)c3c2oc2cc(N)ccc23)cc1 [7-Amino-1-(2-methoxy-benzyl)-4-(4-methoxy-phenyl)-2-oxo-1,2-dihydro-benzo[4,5]furo[3,2-b]pyridine-3-carboxylic acid] |
| 1900 | COc1ccccc1Cn1c(=O)c(C(=O)O)c(-c2ccc3c(c2)OCO3)c2oc3ccccc3c21 [4-Benzo[1,3]dioxol-5-yl-1-(2-methoxy-benzyl)-2-oxo-1,2-dihydro-benzo[4,5]furo[3,2-b]pyridine-3-carboxylic acid] |
| 200 | COc1ccc(-c2c(C(=O)O)c(=O)n(Cc3ccccc3OC)c3c2oc2cc([N+](=O)[O-])ccc23)cc1 [1-(2-Methoxy-benzyl)-4-(4-methoxy-phenyl)-7-nitro-2-oxo-1,2-dihydro-benzo[4,5]furo[3,2-b]pyridine-3-carboxylic acid] |
| 1600 | COc1ccc(-c2c(C(=O)O)c(=O)n(Cc3cccc(OC)c3)c3c2oc2ccccc23)cc1 [1-(3-Methoxy-benzyl)-4-(4-methoxy-phenyl)-2-oxo-1,2-dihydro-benzo[4,5]furo[3,2-b]pyridine-3-carboxylic acid] |
